# Measured values from patent US7718688B2, “Nitrobenzindoles and their use in cancer therapy” (Auckland Uniservices Limited, priority 2004, dated 2010).
# Legend:
# [1] = One-electron reduction potential E(1) by pulse radiolysis; type: physicochemical; details: determined by pulse radiolysis
# [2] = test system: HT29: human colon cancer cell line; assay: Proliferation IC50 assay, oxic/hypoxic, HT29; type: cell-based; details: Table 3; for IC50: 4 h exposure under aerobic conditions; for HCR (hypoxic cytotoxicity ratio) HT29: IC50(aerobic)/IC10(hypoxic)
# [3] = test system: SKOV3: human ovarian carcinoma cell line; assay: Proliferation IC50 assay, oxic/hypoxic, SKOV3; type: cell-based; details: Table 3; for IC50: 4 h exposure under aerobic conditions; for HCR (hypoxic cytotoxicity ratio) SKOV3: IC50(aerobic)/IC10(hypoxic)
# HT29 clonogens = assay: Clonogenic assay (C10), oxic/hypoxic, HT29; type: cell-based, human; details: for Clonogenic HCR HT29: C10(aerobic)/C10(hypoxic); for Clonogenic C10 HT29 Oxic: concentration to reduce HT29 clonogens to 10% of controls, 4 hr exposure under aerobic conditions
# [4] = Hypoxic metabolism with HT29 tumour S9 (HPLC); details: 10 μM with tumour S9 (12 mg/mL protein), 37° C., pH 7.4, NADPH 1 mM, 2 h, hypoxic; products R3, 56, 55, 60
# Excerpt: Metabolism of compounds of Formula I was investigated using S9 preparations from HT29 tumours grown as xenografts in CD-1 mice.
SMILES,E(1): one-electron reduction potential [1] [mV],"IC50 ([2]; Homo sapiens, HT-29) [nM]",HCR (hypoxic cytotoxicity ratio) HT29 [2],"IC50 ([3]; Homo sapiens, SK-OV-3) [nM]",HCR (hypoxic cytotoxicity ratio) SKOV3 [3],Clonogenic HCR HT29 (HT29 clonogens),Clonogenic C10 HT29 Oxic (HT29 clonogens) [µM],melting point,k: rate of formation of compound of Formula II [4] [µM/h],IC50 [2] [nM],IC50 [3] [nM]
"COc1cc2cc(C(=O)N3CC(CCl)c4c3cc([N+](=O)[O-])c3cc(C(=O)NCCN(C)C)ccc43)[nH]c2c(OC)c1OC (stereo not drawn) [Compound 20, 1-(Chloromethyl)-N-[2-(dimethylamino)ethyl]-5-nitro-3-(5,6,7-trimethoxyindol-2-carbonyl)-1,2-dihydro-3H-benzo[e]indole-7-carboxamide]",−427 ± 12,1500,5.9,2000,24,–,–,–,–,–,–
"CN(C)CCOc1ccc2[nH]c(C(=O)N3CC(CCl)c4c3cc([N+](=O)[O-])c3ccc(C(N)=O)cc43)cc2c1 (stereo not drawn) [Compound 43, 1-(Chloromethyl)-3-{5-[2-(dimethylamino)ethoxy]indol-2-carbonyl}-5-nitro-1,2-dihydro-3H-benzo[e]indole-8-carboxamide]",−447 ± 9,2800,22,3400,34,21.2,33,–,–,–,–
"CN(C)CCOc1ccc2[nH]c(C(=O)N3CCc4c3cc([N+](=O)[O-])c3c(S(N)(=O)=O)c(CCl)ccc43)cc2c1 [Compound 7, 7-(Chloromethyl)-3-{5-[2-(dimethylamino)ethoxy]indol-2-carbonyl}-5-nitro-1,2-dihydro-3H-benzo[e]indole-6-sulfonamide]",−497 ± 8,2700,2.3,3700,4.6,–,–,> 320 °C,–,–,–
"CN(C)CCOc1ccc2[nH]c(C(=O)N3CC(CCl)c4c3cc([N+](=O)[O-])c3ccccc43)cc2c1 (stereo not drawn) [Compound R2, reference compound]",−512 ± 8,470,–,1400,–,2,4.8,–,0.49,–,–
"CN(C)CCOc1ccc2[nH]c(C(=O)N3CC(CCl)c4c3cc([N+](=O)[O-])c3cc(C#N)ccc43)cc2c1 (stereo not drawn) [Compound 22, 1-(Chloromethyl)-3-{5-[2-(dimethylamino)ethoxy]indol-2-carbonyl}-5-nitro-1,2-dihydro-3H-benzo[e]indole-7-carbonitrile]",−385 ± 8,700,–,810,–,–,–,–,1.27,–,–
COc1cc2cc(C(=O)N3CC(CCl)c4c3cc([N+](=O)[O-])c3cc([N+](=O)[O-])ccc43)[nH]c2c(OC)c1OC (stereo not drawn) [Compound 8],–,–,12,–,78,>16.2,>25,–,–,14000,16000
"COc1cc2cc(C(=O)N3CC(CCl)c4c3cc([N+](=O)[O-])c3cc(C(C)=O)ccc43)[nH]c2c(OC)c1OC (stereo not drawn) [Compound 11, 7-Acetyl-1-(chloromethyl)-5-nitro-3-(5,6,7-trimethoxyindol-2-carbonyl)-1,2-dihydro-3H-benzo[e]indole]",–,4100,5.2,5100,19,>13.5,>25,257 to 260 °C,–,–,–
"CN(C)CCOc1ccc2[nH]c(C(=O)N3CC(CCl)c4c3cc([N+](=O)[O-])c3c(C#N)cccc43)cc2c1 (stereo not drawn) [Compound 6, 1-(Chloromethyl)-3-{5-[2-(dimethylamino)ethoxy]indol-2-carbonyl}-5-nitro-1,2-dihydro-3H-benzo[e]indole-6-carbonitrile]",−491 ± 8,120,1.1,170,1.7,–,–,> 300 °C,–,–,–
"CN(C)CCOc1ccc2[nH]c(C(=O)N3CC(CCl)c4c3cc([N+](=O)[O-])c3c(C(N)=O)cccc43)cc2c1 (stereo not drawn) [Compound 5, 1-(Chloromethyl)-3-{5-[2-(dimethylamino)ethoxy]indol-2-carbonyl}-5-nitro-1,2-dihydro-3H-benzo[e]indole-6-carboxamide]",−481 ± 8,23000,43,50000,18,–,–,> 350 °C,–,–,–
"COC(=O)c1ccc2c3c(cc([N+](=O)[O-])c2c1)N(C(=O)c1cc2cc(OCCN(C)C)ccc2[nH]1)CC3CCl (stereo not drawn) [Compound 14, Methyl 1-(chloromethyl)-3-{5-[2-(dimethylamino)ethoxy]indol-2-carbonyl}-5-nitro-1,2-dihydro-3H-benzo[e]indole-7-carboxylate]",−429 ± 8,320,1.2,440,1.9,–,–,–,–,–,–
"CN(C)CCOc1ccc2[nH]c(C(=O)N3CC(CCl)c4c3cc([N+](=O)[O-])c3ccc(S(C)(=O)=O)cc43)cc2c1 (stereo not drawn) [Compound 47, 1-(Chloromethyl)-3-{5-[2-(dimethylamino)ethoxy]indol-2-carbonyl}-8-(methylsulfonyl)-5-nitro-1,2-dihydro-3H-benzo[e]indole]",−420 ± 8,980,1.2,1900,2.7,–,–,–,–,–,–
"CN(C)CCOc1ccc2[nH]c(C(=O)N3CC(CCl)c4c3cc([N+](=O)[O-])c3cccc([N+](=O)[O-])c43)cc2c1 (stereo not drawn) [Compound 52, 1-(Chloromethyl)-3-{5-[2-(dimethylamino)ethoxy]indol-2-carbonyl}-5,9-dinitro-1,2-dihydro-3H-benzo[e]indole]",−477 ± 7,1400,1.3,1200,1.5,–,–,–,–,–,–
"CN(C)CCOc1ccc2[nH]c(C(=O)N3CC(CCl)c4c3cc([N+](=O)[O-])c3ccc(S(N)(=O)=O)cc43)cc2c1 (stereo not drawn) [Compound 49, 1-(Chloromethyl)-3-{5-[2-(dimethylamino)ethoxy]indol-2-carbonyl}-5-nitro-1,2-dihydro-3H-benzo[e]indole-8-sulfonamide]",−456 ± 8,9000,26,4900,21,–,–,260 to 265 °C (dec.),–,–,–
"CN(C)CCOc1ccc2[nH]c(C(=O)N3CC(CCl)c4c3cc([N+](=O)[O-])c3c([N+](=O)[O-])cccc43)cc2c1 (stereo not drawn) [Compound 2, 1-(Chloromethyl)-3-(5-[2-(dimethylamino)ethoxy]indol-2-carbonyl)-5,6-dinitro-1,2-dihydro-3H-benzo[e]indole]",−467 ± 8,2800,2.2,4100,2.9,–,–,–,–,–,–
"CN(C)CCOc1ccc2[nH]c(C(=O)N3CC(CCl)c4c3cc([N+](=O)[O-])c3cc(S(C)(=O)=O)ccc43)cc2c1 (stereo not drawn) [Compound 24, 1-(Chloromethyl)-3-{5-[2-(dimethylamino)ethoxy]indol-2-carbonyl}-7-(methylsulfonyl)-5-nitro-1,2-dihydro-3H-benzo[e]indole]",−362 ± 8,970,4.0,1300,11,–,–,–,–,–,–
CN(C)CCOc1ccc2[nH]c(C(=O)N3CC(CCl)c4c3cc([N+](=O)[O-])c3ccc(C#N)cc43)cc2c1 (stereo not drawn) [Compound 45],−419 ± 8,–,1.4,–,1.5,–,–,–,–,1400,1200
"CN(C)CCNS(=O)(=O)c1ccc2c3c(cc([N+](=O)[O-])c2c1)N(C(=O)c1cc2cc(OCCN(C)C)ccc2[nH]1)CC3CCl (stereo not drawn) [Compound 39, 1-(Chloromethyl)-3-{5-[2-(dimethylamino)ethoxy]indol-2-carbonyl}-N-[2-(dimethylamino)ethyl]-5-nitro-1,2-dihydro-3H-benzo[e]indole-7-sulfonamide]",−357 ± 8,730,110,830,130,55,6.2,–,–,–,–
"CN(C)CCOc1ccc2[nH]c(C(=O)N3CC(CCl)c4c3cc([N+](=O)[O-])c3cc(C(N)=O)ccc43)cc2c1 (stereo not drawn) [Compound 16, 1-(Chloromethyl)-3-{5-[2-(dimethylamino)ethoxy]indol-2-carbonyl}-5-nitro-1,2-dihydro-3H-benzo[e]indole-7-carboxamide]",−422 ± 10,4100,–,3900,–,>14,>25,–,1.48,–,–
